Assay results: article PMC5909177 (Bioconjugate Chemistry, 2018)

Tests used:
Gal-3 [1] = conditions: for Gal-3; cited from earlier work
Gal-1 = conditions: for Gal-1; cited from earlier work
Gal-3 [2] = target: Gal-3 (Homo sapiens, UniProt P17931); assay: competitive inhibition of Gal-3 binding to immobilized asialofetuin; conditions: negative control
Chain of Gal-3 (Homo sapiens, UniProt P17931) (P17931 whole entry): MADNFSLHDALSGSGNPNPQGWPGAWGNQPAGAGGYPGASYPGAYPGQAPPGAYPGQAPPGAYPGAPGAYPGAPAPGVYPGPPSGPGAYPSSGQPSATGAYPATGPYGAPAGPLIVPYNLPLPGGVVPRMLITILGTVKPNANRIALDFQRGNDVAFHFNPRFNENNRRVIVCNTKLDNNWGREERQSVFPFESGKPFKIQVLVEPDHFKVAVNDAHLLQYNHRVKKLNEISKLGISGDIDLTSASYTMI

Compound | Kd (Gal-3 [1]) [µM] | Kd (Gal-1) [µM] | interference with Gal-3 binding to ASF (Gal-3 [2])
CO[C@@H]1O[C@H](CO)[C@@H](O[C@@H]2O[C@H](CO)[C@H](O)[C@H](O)[C@H]2O)[C@H](O)[C@H]1O [methyl β-lactoside] | 220 | 190 | 
CO[C@@H]1O[C@H](CO)[C@@H](O[C@@H]2O[C@H](CO)[C@H](O)[C@H](O)[C@H]2O)[C@H](O)[C@H]1NC(C)=O [methyl β-LacNAc] | 67 |  | 
bovine serum albumin [Nonmodified BSA] |  |  | not interfering with Gal-3 binding to ASF
OC[C@H]1O[C@@H](S[C@@H]2O[C@H](CO)[C@H](O)[C@H](O)[C@H]2O)[C@H](O)[C@@H](O)[C@H]1O [TDG, thiodigalactoside] | 49 | 24 | 
